Data from patent US20240190849A1, “AMINOPYRIMIDINE COMPOUNDS AND METHODS OF THEIR USE” (TYRA BIOSCIENCES, INC., priority 2021, published 2024).

How the values were obtained:
Settings in all cases: FGFR binding data
FGFR2 = molecular target: T1, FGFR2 (Homo sapiens, UniProt P21802); test: Kinase binding assay (kinase-tagged T7 phage, affinity beads, qPCR readout), FGFR2
T1 construct: made in house; host or cells: E. coli derived from BL21, infected with T7 phage
Description: (§1) Kinase-tagged T7 phage strains were prepared in an E. coli host derived from the BL21 strain. E. coli were grown to log-phase and infected with T7 phage and incubated with shaking at 32° C. until lysis. The lysates were centrifuged and filtered to remove cell debris. Streptavidin-coated magnetic beads were treated with biotinylated small molecule ligands for 30 minutes at room temperature to generate affinity resins for kinase assays. The liganded beads were blocked with excess biotin and washed with blocking buffer SeaBlock (Pierce), 1% BSA, 0.05% Tween 20, 1 mM DTT to remove unbound ligand and to reduce non-specific binding. Binding reactions were assembled by combining kinases, liganded affinity beads, and test compounds in 1× binding buffer (20% SeaBlock, 0.17×PBS, 0.05% Tween 20, 6 mM DTT).
(§2) Test compounds were prepared as 111× stocks in 100% DMSO. Kds were determined using an 11-point 3-fold compound dilution series with three DMSO control points. All compounds for Kd measurements are distributed by acoustic transfer (non-contact dispensing) in 100% DMSO. The compounds were then diluted directly into the assays such that the final concentration of DMSO was 0.9%. All reactions performed in polypropylene 384-well plate. Each was a final volume of 0.02 ml. The assay plates were incubated at room temperature with shaking for 1 hour and the affinity beads were washed with wash buffer (1×PBS, 0.05% Tween 20). The beads were then re-suspended in elution buffer (1×PBS, 0.05% Tween 20, 0.5 μM non-biotinylated affinity ligand) and incubated at room temperature with shaking for 30 minutes. The kinase concentration in the eluates was measured by qPCR.
(§3) Binding constants were calculated with a standard dose-response curve using the Hill equation: […]
(§4) The Hill Slope was set to −1. Curves were fitted using a non-linear least square fit with the Levenberg-Marquardt algorithm.

FGFR3 (V555M) = molecular target: T2, FGFR3 (V555M) (Homo sapiens, UniProt P22607, V555M); test: Kinase binding assay (kinase-tagged T7 phage, affinity beads, qPCR readout), FGFR3 (V555M)
T2 construct: made in house; host or cells: E. coli derived from BL21, infected with T7 phage
T2 sequence (P22607 23-806 V555M): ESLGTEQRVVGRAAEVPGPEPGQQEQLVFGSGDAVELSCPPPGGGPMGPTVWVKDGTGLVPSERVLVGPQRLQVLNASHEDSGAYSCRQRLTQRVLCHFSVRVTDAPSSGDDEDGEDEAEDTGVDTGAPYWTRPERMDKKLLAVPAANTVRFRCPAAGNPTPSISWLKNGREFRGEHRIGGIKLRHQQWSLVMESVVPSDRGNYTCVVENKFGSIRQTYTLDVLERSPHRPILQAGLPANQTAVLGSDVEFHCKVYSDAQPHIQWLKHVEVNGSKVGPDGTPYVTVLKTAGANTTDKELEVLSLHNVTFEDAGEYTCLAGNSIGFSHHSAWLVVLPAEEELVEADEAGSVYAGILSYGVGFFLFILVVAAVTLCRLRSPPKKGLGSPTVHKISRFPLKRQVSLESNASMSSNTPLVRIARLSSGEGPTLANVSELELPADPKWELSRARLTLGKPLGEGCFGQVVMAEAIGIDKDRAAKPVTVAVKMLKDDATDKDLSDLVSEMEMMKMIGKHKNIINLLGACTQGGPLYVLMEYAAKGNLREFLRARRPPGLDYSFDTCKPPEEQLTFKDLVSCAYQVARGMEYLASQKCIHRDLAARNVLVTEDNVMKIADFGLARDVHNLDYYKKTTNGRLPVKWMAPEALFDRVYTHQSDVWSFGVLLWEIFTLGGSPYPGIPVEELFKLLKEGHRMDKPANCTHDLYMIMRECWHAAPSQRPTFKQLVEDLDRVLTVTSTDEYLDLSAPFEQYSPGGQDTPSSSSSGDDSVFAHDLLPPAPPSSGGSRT
Description: as §1, §2, §3, §4

FGFR3 = molecular target: T3, FGFR3 (Homo sapiens, UniProt P22607); test: Kinase binding assay (kinase-tagged T7 phage, affinity beads, qPCR readout), FGFR3
T3 construct: made in house; host or cells: E. coli derived from BL21, infected with T7 phage
T3 sequence (P22607 23-806): as the sequence (P22607 23-806 V555M) above, with M533V counted along it
Description: as §1, §2, §3, §4

FGFR1 = molecular target: T4, FGFR1 (Homo sapiens, UniProt P11362); test: Kinase binding assay (kinase-tagged T7 phage, affinity beads, qPCR readout), FGFR1
T4 construct: made in house; host or cells: E. coli derived from BL21, infected with T7 phage
T4 sequence (P11362 22-822): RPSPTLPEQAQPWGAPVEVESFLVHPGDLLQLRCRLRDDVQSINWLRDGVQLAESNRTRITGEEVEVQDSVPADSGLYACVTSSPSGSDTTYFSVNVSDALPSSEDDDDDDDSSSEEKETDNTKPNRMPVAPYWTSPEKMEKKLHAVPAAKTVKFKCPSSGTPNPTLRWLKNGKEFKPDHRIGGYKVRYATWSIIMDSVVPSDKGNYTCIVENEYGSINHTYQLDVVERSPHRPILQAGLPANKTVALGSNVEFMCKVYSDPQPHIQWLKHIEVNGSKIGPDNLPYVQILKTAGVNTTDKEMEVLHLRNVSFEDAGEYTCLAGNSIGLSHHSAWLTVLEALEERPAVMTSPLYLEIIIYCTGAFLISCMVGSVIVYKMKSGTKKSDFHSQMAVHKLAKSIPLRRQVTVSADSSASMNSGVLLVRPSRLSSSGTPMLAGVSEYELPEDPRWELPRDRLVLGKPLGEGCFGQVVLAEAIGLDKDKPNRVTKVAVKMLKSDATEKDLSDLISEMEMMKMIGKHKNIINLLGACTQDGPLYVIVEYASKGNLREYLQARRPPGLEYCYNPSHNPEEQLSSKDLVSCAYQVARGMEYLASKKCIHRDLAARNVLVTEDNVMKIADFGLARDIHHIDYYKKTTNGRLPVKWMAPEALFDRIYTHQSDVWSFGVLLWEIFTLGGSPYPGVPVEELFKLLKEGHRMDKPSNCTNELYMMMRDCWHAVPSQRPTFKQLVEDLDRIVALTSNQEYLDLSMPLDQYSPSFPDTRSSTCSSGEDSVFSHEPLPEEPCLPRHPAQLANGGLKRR
Description: as §1, §2, §3, §4

T1 sequence (P21802 22-821): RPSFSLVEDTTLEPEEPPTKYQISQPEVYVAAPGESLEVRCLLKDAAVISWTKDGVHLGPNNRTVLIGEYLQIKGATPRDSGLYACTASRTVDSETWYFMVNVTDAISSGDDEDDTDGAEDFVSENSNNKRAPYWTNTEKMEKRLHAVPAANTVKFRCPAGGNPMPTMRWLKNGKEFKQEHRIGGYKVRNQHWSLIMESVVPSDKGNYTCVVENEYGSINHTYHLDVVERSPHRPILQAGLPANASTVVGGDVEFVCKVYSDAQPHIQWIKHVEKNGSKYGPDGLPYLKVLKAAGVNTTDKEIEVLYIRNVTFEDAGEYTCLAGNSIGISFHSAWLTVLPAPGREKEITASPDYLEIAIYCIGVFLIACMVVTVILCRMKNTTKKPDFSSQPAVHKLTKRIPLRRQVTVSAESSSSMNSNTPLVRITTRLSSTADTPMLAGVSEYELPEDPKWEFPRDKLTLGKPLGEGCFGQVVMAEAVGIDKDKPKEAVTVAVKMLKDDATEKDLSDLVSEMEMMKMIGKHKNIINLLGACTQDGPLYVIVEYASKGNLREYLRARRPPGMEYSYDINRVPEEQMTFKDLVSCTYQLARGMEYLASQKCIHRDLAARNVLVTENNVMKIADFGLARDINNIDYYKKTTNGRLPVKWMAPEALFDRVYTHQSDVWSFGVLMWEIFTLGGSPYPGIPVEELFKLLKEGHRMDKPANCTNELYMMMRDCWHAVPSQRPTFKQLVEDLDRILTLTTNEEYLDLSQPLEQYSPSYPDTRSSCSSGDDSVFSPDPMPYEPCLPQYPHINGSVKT

Row | Compound | Kd (FGFR2) [nM] | Kd (FGFR3 (V555M)) [nM] | Kd (FGFR3) [nM] | Kd (FGFR1) [nM]
1 | C=CC(=O)Nc1ccc2c(ccn2-c2nc(Nc3cccc(OCCN4CCOCC4)c3)ncc2C)c1C [Example 5, N-[4-methyl-1-[5-methyl-2-[3-(2-morpholinoethoxy)anilino]pyrimidin-4-yl]indol-5-yl]prop-2-enamide] | 100 to 250 | 0.1 to 100 | 100 to 250 | 250 to 1000
2 | C=CC(=O)Nc1ccc2c(ccn2-c2nc(Nc3ccc(N(C)CCN(C)C)cc3)ncc2Cl)c1 [Example 3, N-[1-[5-chloro-2-[4-[2-(dimethylamino)ethyl-methyl-amino]anilino]pyrimidin-4-yl]indol-5-yl]prop-2-enamide] | 0.1 to 100 | 0.1 to 100 | 0.1 to 100 | 0.1 to 100
3 | C=CC(=O)Nc1ccc2c(c1)c(C)cn2-c1nc(Nc2ccc(CN3CCN(C)CC3)cc2)ncc1Cl [Example 65, N-[1-[5-chloro-2-[4-[(4-methylpiperazin-1-yl)methyl]-anilino]pyrimidin-4-yl]-3-methyl-indol-5-yl]prop-2-enamide] | 0.1 to 100 | 0.1 to 100 | 0.1 to 100 | 0.1 to 100
4 | C=CC(=O)Nc1ccc2c(ccn2-c2nc(Nc3ccc(N4CCOCC4)c(F)c3)ncc2Cl)c1 [Example 16, N-[1-[5-chloro-2-(3-fluoro-4-morpholino-anilino)pyrimidin-4-yl]indol-5-yl]prop-2-enamide] | 250 to 1000 | 0.1 to 100 | 0.1 to 100 | 250 to 1000
5 | C=CS(=O)(=O)Nc1ccc2c(c1)c(C)cn2-c1nc(Nc2ccnn2C)ncc1C [Example 109, N-[3-methyl-1-[5-methyl-2-[(2-methylpyrazol-3-yl)amino]pyrimidin-4-yl]indol-5-yl]ethenesulfonamide] | 0.1 to 100 | 0.1 to 100 | 0.1 to 100 | 0.1 to 100
6 | C=CC(=O)Nc1cnc2c(c1)c(C)cn2-c1nc(Nc2ccn(C3COC3)n2)ncc1C [Example 113, N-[3-methyl-1-[5-methyl-2-[[1-(oxetan-3-yl)pyrazol-3-yl]amino]-pyrimidin-4-yl]pyrrolo[2,3-b]pyridin-5-yl]prop-2-enamide] | 0.1 to 100 | 0.1 to 100 | 0.1 to 100 | 0.1 to 100
7 | C=CC(=O)Nc1ccc2c(ccn2-c2nc(Nc3ccc(N4CCOCC4)cc3OCC)ncc2Cl)c1 [Example 11, N-[1-[5-chloro-2-(2-ethoxy-4-morpholino-anilino)pyrimidin-4-yl]indol-5-yl]prop-2-enamide] | > 1000 | > 1000 | > 1000 | > 1000
8 | C=CC(=O)Nc1cnc2c(c1)c(C)cn2-c1nc(Nc2ccn(CCO)n2)ncc1C [Example 119, N-[1-[2-[[1-(2-hydroxyethyl)pyrazol-3-yl]amino]-5-methyl-pyrimidin-4-yl]-3-methyl-pyrrolo[2,3-b]pyridin-5-yl]prop-2-enamide] | 0.1 to 100 | 0.1 to 100 | 0.1 to 100 | 0.1 to 100
9 | C=CC(=O)Nc1ccc2c(-c3nc(Nc4ccnn4C)ncc3Cl)cn(C)c2c1 [Example 62, N-[3-[5-chloro-2-[(2-methylpyrazol-3-yl)amino]pyrimidin-4-yl]-1-methyl-indol-6-yl]prop-2-enamide] | 0.1 to 100 | 0.1 to 100 | 0.1 to 100 | 250 to 1000
10 | C=CC(=O)Nc1ccc2c(-c3ccnc(Nc4ccn(CC)n4)n3)cn(C)c2c1 [Example 94, N-[3-[2-[(1-ethylpyrazol-3-yl)amino]pyrimidin-4-yl]-1-methyl-indol-6-yl]prop-2-enamide] | 250 to 1000 | 100 to 250 | 0.1 to 100 | 100 to 250
11 | C=CC(=O)Nc1ccc2c(c1)c(C)cn2-c1nc(Nc2cccc(N3CCN(CCO)CC3)c2)ncc1Cl [Example 88, N-[1-[5-chloro-2-[3-[4-(2-hydroxyethyl)piperazin-1-yl]anilino]pyrimidin-4-yl]-3-methyl-indol-5-yl]prop-2-enamide] | 0.1 to 100 | 0.1 to 100 | 0.1 to 100 | 0.1 to 100
12 | C=CC(=O)Nc1ccc2c(-c3ccnc(Nc4cc(C)[nH]n4)n3)cn(C)c2c1 [Example 111, N-[1-methyl-3-[2-[(5-methyl-1H-pyrazol-3-yl)amino]pyrimidin-4-yl]indol-6-yl]prop-2-enamide] | > 1000 | > 1000 | > 1000 | > 1000

Next, values leading:

Row | Kd (FGFR2) [nM] | Kd (FGFR3 (V555M)) [nM] | Kd (FGFR3) [nM] | Kd (FGFR1) [nM] | Compound
13 | 0.1 to 100 | 0.1 to 100 | 0.1 to 100 | 250 to 1000 | C=CC(=O)Nc1ccc2c(-c3nc(Nc4cn(CC(F)F)nc4C)ncc3F)cn(C)c2c1 [Example 169, N-[3-[2-[[1-(2,2-difluoroethyl)-3-methyl-pyrazol-4-yl]amino]-5-fluoro-pyrimidin-4-yl]-1-methyl-indol-6-yl]prop-2-enamide]
14 | 0.1 to 100 | 0.1 to 100 | 0.1 to 100 | 0.1 to 100 | Cc1cn(-c2nc(Nc3cnn(C[C@H](C)O)c3)ncc2F)c2ncc(NC(=O)/C=C/CN(C)C)cc12 [Example 196, (E)-4-(dimethylamino)-N-[1-[5-fluoro-2-[[1-[(2S)-2-hydroxypropyl]pyrazol-4-yl]amino]pyrimidin-4-yl]-3-methyl-pyrrolo[2,3-b]pyridin-5-yl]but-2-enamide]
15 | 0.1 to 100 | 0.1 to 100 | 0.1 to 100 | 100 to 250 | C=CC(=O)Nc1ccc2c(c1)c(C)cn2-c1nc(Nc2conc2C)ncc1F [Example 155, N-[1-[5-fluoro-2-[(3-methylisoxazol-4-yl)amino]pyrimidin-4-yl]-3-methyl-indol-5-yl]prop-2-enamide]
16 | 0.1 to 100 | 0.1 to 100 | 0.1 to 100 | 0.1 to 100 | C=CC(=O)Nc1ccc2c(c1)c(C)c(C)n2-c1nc(Nc2cnn(C)c2)ncc1F [Example 226, N-[1-[5-fluoro-2-[(1-methylpyrazol-4-yl)amino]pyrimidin-4-yl]-2,3-dimethyl-indol-5-yl]prop-2-enamide]
17 | 0.1 to 100 | 0.1 to 100 | 0.1 to 100 | 100 to 250 | C=CC(=O)Nc1ccc2c(c1)cc(C)n2-c1nc(Nc2cnn(C)c2)ncc1F [Example 227, N-[1-[5-fluoro-2-[(1-methylpyrazol-4-yl)amino]pyrimidin-4-yl]-2-methyl-indol-5-yl]prop-2-enamide]
18 | 250 to 1000 | 100 to 250 | 100 to 250 | 250 to 1000 | C=CC(=O)Nc1ccc2c(c1)c(C)cn2-c1cc(Nc2cn(C)nc2C)ncc1C [Example 224, N-[1-[2-[(1,3-dimethylpyrazol-4-yl)amino]-5-methyl-4-pyridyl]-3-methyl-indol-5-yl]prop-2-enamide]
19 | 0.1 to 100 | 0.1 to 100 | 0.1 to 100 | 0.1 to 100 | Cc1cnc(Nc2cn(C)nc2C)nc1-n1cc(C)c2cc(NC(=O)/C=C/CN(C)C)cnc21 [Example 200, (E)-4-(dimethylamino)-N-[1-[2-[(1,3-dimethylpyrazol-4-yl)amino]-5-methyl-pyrimidin-4-yl]-3-methyl-pyrrolo[2,3-b]pyridin-5-yl]but-2-enamide]
20 | 0.1 to 100 | 0.1 to 100 | 0.1 to 100 | 250 to 1000 | C=CC(=O)Nc1ccc2c(c1)c(C)cn2-c1nc(Nc2cccnc2F)ncc1F [Example 157, N-[1-[5-fluoro-2-[(2-fluoro-3-pyridyl)amino]pyrimidin-4-yl]-3-methyl-indol-5-yl]prop-2-enamide]
21 | 0.1 to 100 | 0.1 to 100 | 0.1 to 100 | 100 to 250 | C#CC(=O)Nc1ccc2c(c1)c(C)cn2-c1nc(Nc2ccnn2C)ncc1F [Example 138, N-[1-[5-fluoro-2-[(2-methylpyrazol-3-yl)amino]pyrimidin-4-yl]-3-methyl-indol-5-yl]prop-2-ynamide]
22 | 100 to 250 | 100 to 250 | 100 to 250 | 250 to 1000 | Cc1nn(C)cc1Nc1ncc(F)c(-n2cc(C)c3cc(NC(=O)/C=C/CN(C)C)cnc32)n1 [Example 179, (E)-4-(dimethylamino)-N-[1-[2-[(1,3-dimethylpyrazol-4-yl)amino]-5-fluoro-pyrimidin-4-yl]-3-methyl-pyrrolo[2,3-b]pyridin-5-yl]but-2-enamide]
23 | 0.1 to 100 | 0.1 to 100 | 0.1 to 100 | 0.1 to 100 | C=CC(=O)Nc1ccc2c(c1)c(C)cn2-c1nc(Nc2cnn(CCO)c2C)ncc1F [Example 192, N-[1-[5-fluoro-2-[[1-(2-hydroxyethyl)-5-methyl-pyrazol-4-yl]amino]pyrimidin-4-yl]-3-methyl-indol-5-yl]prop-2-enamide]
24 | > 1000 | > 1000 | > 1000 | > 1000 | C=CC(=O)Nc1ccc2c(c1)c(C)cn2-c1cc(Nc2cn(C)nc2C)nnc1C [Example 209, N-[1-[6-[(1,3-dimethylpyrazol-4-yl)amino]-3-methyl-pyridazin-4-yl]-3-methyl-indol-5-yl]prop-2-enamide]
